According to patent US20190290641A1, “5-HYDROXYTRYPTAMINE 1B RECEPTOR-STIMULATING AGENT FOR SKIN AND/OR HAIR REPAIR” (INSTITUT PASTEUR, priority 2016, published 2019):

Experiments:
[1] = tested on: hair and hair follicle of mice; experiment: Hair and skin measurements after treatment without shaving; assay type: in vivo; details: no shaving; for hair size: per os fluoxetine 18 mg/kg 6 weeks, vortioxetine 20 mg/kg 12 days; for hair follicle length / skin thickness: per os
Procedure: (§1) All procedures in this study were approved by the Animal Care and Use committee at the Institut Pasteur (CETEA 2016-0007). Unless specified, 6 weeks old male mice C57Bl/6Rj were used in this study and housed on a 12:12 light/dark cycle in a pathogen free facility with controlled temperature and humidity. Food and drink were given ad libitum. Fluoxetine was dissolved in 0.9% NaCl and delivered either by intra peritoneal injections or per os at 18 mg/Kg. Control group received daily injections of 0.9% NaCl. For vortioxetine mice also received the product either dissolved in 96% Ethanol and then diluted 1/200 in water ad libitum at 20 mg/kg or dissolved in 96% Ethanol and then diluted 1/200 in 0.9% NaCl, final concentration 20 mg/kg body weight corrected. For topical applications vortioxetine was dissolved in 0.9% Nacl and directly applied in the wound the 3 first days and then on top on the wound the following days, every day.
To study the possible effect of fluoxetine and vortioxetine on hair growth, fluoxetine (at 18 mg/kg) or vortioxetine (at 20 mg/kg) was provided per os to mice for 6 weeks and 12 days, respectively. […] However, when the hairs were challenged with shaving or depilation, a faster growth of hairs was observed

[2] = tested on: 8 mm biopsy wound of the skin in C57Bl/6 mice; experiment: Wound healing after 8 mm skin biopsy, per os treatment, macroscopic wound size; assay type: in vivo; details: for wound in average smaller than placebo: between the 4th and the 14th day post-injury; for size of the wound vs placebo in the course of wound closure: until 16 days post injury
Procedure: as §1
(§2) Mice were anesthetized using Isoflurane, initially in an induction chamber. The anaesthetised mice were transferred to the anaesthetic nose-cone and maintained on a heated block throughout the procedure (typically for about 5 minutes). Analgesic was administered by subcutaneous injection e.g. buprenorphine 1.5 μl of […] solution, diluted in 30 μl sterile water. The area of the biopsy was shaved. Then an area of dorsal skin was rendered sterile by swabbing with Videne surgical scrub followed by sterile water. A 8 mm sterile punch biopsy was used to create an incision through the epidermis/dermis to the muscle fascia. Any bleeding at this step was carefully avoided. The punch biopsy was removed and the skin separated from muscle connective tissues using forceps or blunted scissors. Mice were then removed from the anesthetic nose-cone and housed in sterilised cages containing paper liner and paper bedding. They were kept warm (using a cage placed on a heated mat) until fully recovered from the effects of the anaesthetic.
In order to assess the regenerative potential of the skin, a 8 mm biopsy of the skin was performed in C57Bl/6 mice, which were either treated per os with fluoxetine at 18 mg/kg or with vortioxetine at 20 mg/kg for 6 weeks and 12 days respectively (FIG. 1A) and during the healing process.

[3] = tested on: 8 mm biopsy wound of the skin in C57Bl/6 mice; experiment: Histological analysis of the wound (H&E, re-epithelization, Ki67 immunostaining); assay type: in vivo; details: for cell infiltration in the dermis vs placebo / number of Ki67+ cells (proliferating cells) in the wound vs placebo / open wounded area vs placebo (H&E): 5 days post injury; for number of cycling cells vs placebo: 14 days post injury; for number of vessels: at the time of the biopsy (T0), H&E, per os treatment, placebo 4.8±1.3; for length of the epithelial tongues vs placebo: day 5 after injury; for distances between the tips of the epithelial tongues vs placebo: day 5 after wounding
Procedure: Width of the wound and distance of the traversed epithelium were measured on H&E.
Percent of re-epithelization was calculated according to the following formula: [distance covered by epithelium]/[distance between wound bed]×100.
The extent of epithelialization and granulation tissue formation was determined on H&E-stained paraffin tissue sections. The length of the epithelial tongue was determined as the distance that the neo-epithelium had migrated from the margin of the wound as defined by the presence of hair follicles in non-wounded skin.
Immunostaining was performed on formol fixed sections. Permeabilized with 0.5% Triton X-100 20 min at room temperature, washed, and blocked with 10% BSA for 30 min. Sections were incubated with primary antibodies overnight at 4° C. and with Alexa-conjugated secondary antibodies 1/250 and Hoechst for 45 minutes. Sections were then analysed using an automated axioscan (Zeiss) or inverted Observer.Z1 Apotome (Zeiss).
To further characterize the wound closure, histological analysis was performed at the time of the biopsy (T0), 5 days post injury and 14 days post injury.

[4] = tested on: hair growth of shaved mice; experiment: Hair growth after shaving (clippers) or depilation (wax); assay type: in vivo; details: for hair regeneration after shaving: 5 and 10 days after shaving; for hair growth, differences between the groups: 24 days after shaving; for growth of hairs in both protocols (clippers, wax): after shaving or depilation
Procedure: 2 different protocols were used to remove the hair from the mice. Mice were anesthetized using Isoflurane, initially in an induction chamber. The anaesthetised mice were transferred to the anaesthetic nose-cone and maintained on a heated block throughout the procedure (typically for about 5 minutes). In protocol 1, shaving was performed by cutting the hair: the mice were gently restrained manually and half of their back was shaved with portable electric hair clippers. In protocol 2, some hair was firstly removed with forceps and wax was used to unstack the hair. The wax was applied twice for maximum efficiency.
The skin color of the mouse skin was measured three times in 5 different locations of the shaved skin randomly and averaged within a 16×16 mm2 field, using ImageJ. The luminance measured reflects the relative darkness ranging from white (0) to black (1 0 0).
In order to study the influence of fluoxetine or vortioxetine on hair growth after a stress 2 different protocols were used on the same mouse. The half right part of the mouse back was shaved by cutting the hair with hairs clippers, and, in parallel, the hairs were removed using wax to unstack the hairs on the left part of the back (FIG. 4G). […] This was still true 10 days after shaving with longer hairs in the treated animals compared with placebo (FIG. 4J,M,N). […] These observations are in favor of a faster growth and faster regeneration but not bigger or longer hairs.

[5] = tested on: 8 mm biopsy wound of the skin in C57Bl/6 mice; experiment: Wound healing after 8 mm skin biopsy, topical application without pre-treatment; assay type: in vivo
Procedure: as §1, §2
To further confirm the data, the same protocol was performed on C57Bl/6 mice wounded with 8 mm biopsy, but this time the mice were not pre-treated and received topical (300 μl) applications of vortioxetine at a concentration of 20 mg/ml diluted in 96% ethanol. The placebo received the same amount of 96% ethanol. […] Six days post injury, the size of the wound was smaller in the animals topically treated with vortioxetine (FIG. 1L). Eight days post injury, the size of the wound was 10 times lower than the placebo (FIG. 1L).

[6] = target: T1, 5HT1 BR (Mus musculus, UniProt P28334); experiment: Wound closure with topical 5HT1 BR agonist, with or without 5HT1 BR antagonist; assay type: in vivo, mice; details: for size of the wound: 6 days post injury, control 15.09±2.3
T1 construct: from tissue; host or cells: live mice, skin wound (in vivo)
Procedure: Mice were treated with another 5HT1 BR agonist (CP 94253) directly on the wound (topic administration) at a concentration of 0.5 μmol, 12 h after a wound injury.
No pretreatment was performed on this set of experiments and the drug was administered once a day for the totality of the duration of the wound closure. Controls group received PBS topically only, once a day for the total duration of the treatment.

[7] = tested on: hair growth in patients; details: about 100 patients, cited from earlier work
[8] = first 24 hours, per os fluoxetine 18 mg/kg 6 weeks or vortioxetine 20 mg/kg 12 days pre-treatment and during healing
[9] = six days post injury, per os, placebo 15.67
[10] = sixteen days post injury, per os
[11] = sixteen days post injury, per os, placebo 0.5

T1 sequence (P28334 whole entry): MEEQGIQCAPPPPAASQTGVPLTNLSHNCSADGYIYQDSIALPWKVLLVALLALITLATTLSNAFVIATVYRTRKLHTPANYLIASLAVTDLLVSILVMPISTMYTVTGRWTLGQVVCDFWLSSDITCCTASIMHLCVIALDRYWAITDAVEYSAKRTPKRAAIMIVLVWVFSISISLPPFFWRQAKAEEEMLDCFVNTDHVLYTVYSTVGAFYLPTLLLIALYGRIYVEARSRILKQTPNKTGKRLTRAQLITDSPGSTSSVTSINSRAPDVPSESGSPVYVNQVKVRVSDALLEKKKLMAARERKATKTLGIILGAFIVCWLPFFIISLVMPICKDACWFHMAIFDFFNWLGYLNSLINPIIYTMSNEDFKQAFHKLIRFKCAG

Row | SMILES | hair size [1] | hair follicle length [1] | skin thickness [1] | wound in average smaller than placebo [2] | size of the wound vs placebo [2, 8] | size of the wound vs placebo ([2]; four days post injury, per os) | area of the wound [2, 9] | skin regeneration at the macroscopic level [2, 10] | area of the wound [2, 11] | size of the wound vs placebo in the course of wound closure ([2]; per os) | cell infiltration in the dermis vs placebo [3] | number of Ki67+ cells (proliferating cells) in the wound vs placebo [3] | open wounded area vs placebo (H&E) [3] | number of cycling cells vs placebo [3] | number of vessels [3] | length of the epithelial tongues vs placebo [3] | distances between the tips of the epithelial tongues vs placebo [3] | hair regeneration after shaving [4] | hair growth vs placebo ([4]; 5 days after shaving) | hair growth vs placebo ([4]; 10 days after shaving) | other results
1 | CNCCC(Oc1ccc(C(F)(F)F)cc1)c1ccccc1 (stereo not drawn) [fluoxetine] | No differences | No differences | did not change | 27% | No difference | smaller | 11.48 mm^2 | virtually completely regenerated | 0.05 mm^2 | constantly smaller | more cells | higher | smaller | No differences | 8.2±2.7 vessels/mm^2 | significantly increased | significantly shorter | more advanced, faster regeneration of the hairs | More advanced hair growth | longer hairs | size of the wound vs placebo ([2]; two days post injury, per os): smaller; hair growth, differences between the groups [4]: no differences; growth of hairs in both protocols (clippers, wax) [4]: faster growth
2 | Cc1ccc(Sc2ccccc2N2CCNCC2)c(C)c1 [vortioxetine, 1-[2-(2,4-Dimethylphenylsulfanyl)phenyl]piperazine] | No differences | No differences | did not change | 35% | No difference | smaller | 10.10 mm^2 | virtually completely regenerated | 0.05 mm^2 | constantly smaller | more cells | higher | smaller | No differences | 8.7±3.5 vessels/mm^2 | significantly increased | significantly shorter | more advanced, faster regeneration of the hairs | More advanced hair growth | longer hairs | sizes of the wounds vs placebo ([5]; T0 to 4 days post injury, topical 300 μl of 20 mg/ml, no pre-treatment): No differences; size of the wound relative to placebo ([5]; eight days post injury, topical): 10 times lower than the placebo; size of the wound vs placebo ([5]; six days post injury, topical): smaller; wound closure ([5]; sixteen days post injury, topical, placebo 0.20 mm^2): virtually completely closed; hair growth, differences between the groups [4]: no differences; growth of hairs in both protocols (clippers, wax) [4]: faster growth
3 | CCCOc1ccc2[nH]cc(C3=CCNCC3)c2n1 [CP 94253] | – | – | – | – | – | – | – | – | – | – | – | – | – | – | – | – | – | – | – | – | size of the wound ([6]; topical 0.5 μmol once a day from 12 h after injury, no pretreatment): 7.7±2.5
4 | CCOC(=O)c1ccnc(C(=O)OCC)c1 [stemoxydin] | – | – | – | – | – | – | – | – | – | – | – | – | – | – | – | – | – | – | – | – | new hairs compared to the normal average of 50 to 100 new hairs growing every day ([7]; 90 days): 4%; average new hairs ([7]; in 90 days): 1500 new hairs
5 | COc1ccc(NC(=O)c2ccc(-c3ccc(-c4noc(C)n4)cc3C)cc2)cc1N1CCN(C)CC1 [GR127935] | – | – | – | – | – | – | – | – | – | – | – | – | – | – | – | – | – | – | – | – | size of the wound ([6]; antagonist by osmotic pumps at 4 mg/kg concomitant with topical agonist CP 94253): 10.3±3.1; effect of the antagonist on the positive effects of the agonist ([6]; osmotic pumps at 4 mg/kg, concomitant with CP 94253): blocked partially
